Test results reported in patent publication US11385223B2, “Anastasis biosensor” (THE JOHNS HOPKINS UNIVERSITY, priority 2012, dated 2022).
Numbered stars: 1 amine (or outer) side, 2 acyl side, 3 side chain; on linkers, the order of the positions; unused ones are H or OH. Bridge positions count the residues as written; N and C are the ends. Square brackets hold non-standard residues; d marks the D form. Peptide text beside a SMILES is read from it. I, II: the chains in the order shown. Actinocin(9to1) = Cc1c2oc3c(C)ccc(C(=O)[*:1])c3nc-2c(C(=O)[*:2])c(N)c1=O; NMeV = CN[C@H](C(=O)O)C(C)C; Sar = CNCC(=O)O

Tests used:
NIH 3T3 cells = test: Apoptosis induction and its reversal in NIH 3T3 cells (morphology, caspase-3 Western blot); type: cell-based
[1] = test system: liver cells and NIH 3T3 cells; test: Transient actinomycin D exposure after removal of apoptotic inducers (caspase-3 Western blot, trypan blue exclusion); type: cell-based
Experimental: FIG. 14A-14F: Critical contributing factors in reversal of apoptosis. (FIG. 14A) RNA blot for detecting new RNA synthesis in untreated vs. treated and washed (Washed) liver cells 1 h after a 5-h exposure to 4.5% ethanol and with and without transient exposure (1 h, 1 μg/ml) to actinomycin D (AMD). No s4U served as negative control for the probe binding to RNA. (FIG. 14B) Western blot analysis of the cleavage of caspase-3 (Casp-3) on the total lysate of untreated, treated (5-h exposure to 4.5% ethanol for liver cells, 20-h exposure to 10% DMSO for NIH 3T3 cells), and washed liver cells and NIH 3T3 cells with and without transient exposure to actinomycin D (AMD) immediately after removal of apoptotic stimuli. The AMD-exposed cells were cultured in fresh medium for 23 h and then subjected to the analysis. c, cleaved form. […] The AMD exposed-cells were cultured in fresh medium for 23 h and then subjected to the assay. ns, p>0.05; *p<0.05; n=3 independent experiments. Error bars denote SD. (FIG. 14D) A time-course microarray study in liver cells, log 2-fold change of gene expression comparison between ethanol-induced apoptotic cells (RO), untreated cells (Ctrl), and induced cells that were then washed and further cultured in fresh medium for 3 (R3), 6 (R6), 24 (R24), and 48 h (R48). The log 2 signal values from three biological replicates were averaged (geometric mean) for each time point. […] The corresponding cells were exposed to the inhibitors after apoptotic stimuli had been removed from the treated cells and then further cultured for 24 h. ns, p>0.05; *P<0.05; n=3 independent experiments. Error bars denote SD. (FIG. 14F) Proposed model for reversal of apoptosis. Expression of multiple prosurvival factors and new transcripts during reversal of apoptosis promotes cell survival by suppressing the activated apoptotic pathways and repairing the cells.
To gain insight into the mechanism by which cells reverse apoptosis and survive, we first tested whether new transcription is required. […]

[2] = test system: primary mouse macrophages; test: Apoptosis induction and its reversal in primary macrophages (morphology); type: cell-based
[3] = test system: primary mouse liver cells
HeLa cells = test: Apoptosis induction and its reversal in HeLa cells expressing caspase biosensor NES-DEVD-YFP-NLS
[4] = test system: Mustela putoris furo (Mpf) brain cells; test: Apoptosis induction and its reversal in Mpf brain cells (morphology, annexin V-FITC); type: cell-based, ferret
[5] = transient exposure (1 h, 1 μg/ml) immediately after removal of apoptotic stimuli, then 23 h fresh medium
[6] = 4.3% ethanol 5 h, washed, cultured 2 h

C[S+](C)[O-] [DMSO, dimethyl sulfoxide]
cells that reversed all signs of apoptosis after removal of the inducer (NIH 3T3 cells; 10% DMSO 20 h, then washed, 24 h): > 90% | NIH 3T3 cells exhibiting multiple hallmarks of apoptosis (NIH 3T3 cells; 10% DMSO for 20 h): > 90% | caspase-3 cleavage (Western blot) (NIH 3T3 cells; NIH 3T3 cells induced with DMSO): increase in cleaved caspase-3

Cc1c2oc3c(C)ccc(C(=O)N[C@@H]4C(=O)N[C@H](C(C)C)C(=O)N5CCC[C@H]5C(=O)N(C)CC(=O)N(C)[C@@H](C(C)C)C(=O)O[C@@H]4C)c3nc-2c(C(=O)N[C@@H]2C(=O)N[C@H](C(C)C)C(=O)N3CCC[C@H]3C(=O)N(C)CC(=O)N(C)[C@@H](C(C)C)C(=O)O[C@@H]2C)c(N)c1=O [actinomycin D] (I: T[dV]P[Sar][NMeV] / II: T[dV]P[Sar][NMeV]; ester I:1-I:C, II:1-II:C; linker I:N-II:N via Actinocin(9to1))
cell death in control cells not treated with apoptotic inducers ([1]; same concentration of actinomycin D): did not cause significant cell death | caspase-3 cleavage (Western blot) after removal of apoptotic inducers [1, 5]: persistence of cleaved caspase-3 | cell death by trypan blue staining after removal of apoptotic inducers [1, 5]: irreversible cell death

CC(C)(O)/C=C/C(=O)[C@](C)(O)[C@H]1[C@H](O)C[C@@]2(C)[C@@H]3CC=C4[C@@H](C=C(O)C(=O)C4(C)C)[C@]3(C)C(=O)C[C@]12C [cucurbitacin I]
cells that recovered morphology after removal of the inducer ([2]; 1 μM cucurbitacin I 24 h, then removal of inducer for 24 h): ~90% | cells displaying morphological hallmarks of apoptosis (nuclear condensation, mitochondrial fragmentation, cell shrinkage) ([2]; 1 μM cucurbitacin I for 24 h): Greater than 90%

CCO [ethanol]
cells that recovered morphology after removal of the inducer (primary rat heart cells; 4.5% ethanol 5 h, then removal of inducer for 24 h): ~90% | cells labeled with annexin V-FITC (primary rat heart cells; 4.5% ethanol 5 h, annexin V-FITC applied ten minutes before washing): Greater than 90% | cells displaying morphological hallmarks of apoptosis (nuclear condensation, mitochondrial fragmentation, cell shrinkage) (primary rat heart cells; 4.5% ethanol for 5 h): Greater than 90% | cells that reversed all signs of apoptosis after removal of the inducer ([3]; 4.5% ethanol 5 h, then washed, 24 h): > 90% | morphological hallmarks of apoptosis (cell shrinkage, plasma membrane blebbing, nuclear condensation, altered mitochondrial morphology) ([3]; 4.5% ethanol for 2.5 h, time-lapse live-cell microscopy): displayed morphological hallmarks of apoptosis | liver cells that shrank and displayed morphological hallmarks of apoptosis ([3]; 4.5% ethanol for 5 h): > 80% | caspase-3 cleavage (Western blot) ([3]; liver cells induced with ethanol): increase in cleaved caspase-3 | cells that recovered normal morphology after removal of the inducer (HeLa cells; [6]): > 90% | recovered cells that retained nuclear YFP (HeLa cells; [6]): 32% | cells exhibiting morphological hallmarks of apoptosis (nuclear condensation, membrane blebbing, cell shrinkage) (HeLa cells; 4.3% ethanol for 3 h): vast majority | time to regain normal morphology after removal of the apoptotic inducer (HeLa cells; 4.3% ethanol, then washed): ≤ 2 h | formation of micronuclei after reversal of apoptosis (HeLa cells; after reversal of ethanol-induced apoptosis, cytokinesis-block micronucleus assay): Increased in formation of micronuclei

C/C1=C\[C@H](C)C[C@H](C)OC(=O)C[C@H](c2ccc(O)cc2)NC(=O)[C@@H](Cc2c(Br)[nH]c3ccccc23)N(C)C(=O)[C@H](C)NC(=O)[C@@H](C)C1 [jasplakinolide]
cells that recovered morphology after removal of the inducer ([4]; 2 μM jasplakinolide 50 h, then removal of inducer for 24 h): ~90% | cells labeled with annexin V-FITC ([4]; 2 μM jasplakinolide 50 h, annexin V-FITC applied ten minutes before washing): Greater than 90% | cells displaying morphological hallmarks of apoptosis (nuclear condensation, mitochondrial fragmentation, cell shrinkage) ([4]; 2 μM jasplakinolide for 50 h): Greater than 90%
